Tests used:
[1] = target: T1, UGT71C1 (Arabidopsis thaliana, UniProt O82381); test: UGT71C1 glucosyltransferase specific activity towards phenolic compounds (reverse-phase HPLC); assay type: biochemical; details: 1 mM phenolic compound, 5 mM UDP-glucose, 50 mM TRIS-HCl pH 7.0, 30° C., 30 min; mean of three replicates ± standard deviation
T1 construct: GST (N); made in house; host or cells: E. coli
T1 sequence (O82381 1-481): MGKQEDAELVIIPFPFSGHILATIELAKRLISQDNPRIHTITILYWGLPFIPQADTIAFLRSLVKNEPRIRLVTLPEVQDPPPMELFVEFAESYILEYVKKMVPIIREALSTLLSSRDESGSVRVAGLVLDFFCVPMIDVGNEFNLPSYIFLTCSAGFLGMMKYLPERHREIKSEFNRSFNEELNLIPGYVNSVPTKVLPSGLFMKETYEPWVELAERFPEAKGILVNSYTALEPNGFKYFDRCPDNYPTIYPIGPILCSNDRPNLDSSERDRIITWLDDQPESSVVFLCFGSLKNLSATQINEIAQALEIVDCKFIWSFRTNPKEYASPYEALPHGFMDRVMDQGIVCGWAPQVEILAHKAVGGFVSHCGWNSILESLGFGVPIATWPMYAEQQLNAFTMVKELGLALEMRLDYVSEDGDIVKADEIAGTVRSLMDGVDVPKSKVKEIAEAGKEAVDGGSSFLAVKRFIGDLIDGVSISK

[2] = target: T2, recombinant GTase A911 (Arabidopsis thaliana, UniProt O22182); test: Specific activity of recombinant GTase producing glucose ester against lignin precursors (HPLC); assay type: biochemical; parameters: made in house; host or cells: E. coli; details: 0.5 ml of potential substrates, 5 mM UDPG, 0.2 μg GTase, 200 μl, 20° C., 30 min
T2 sequence (O22182 1-456): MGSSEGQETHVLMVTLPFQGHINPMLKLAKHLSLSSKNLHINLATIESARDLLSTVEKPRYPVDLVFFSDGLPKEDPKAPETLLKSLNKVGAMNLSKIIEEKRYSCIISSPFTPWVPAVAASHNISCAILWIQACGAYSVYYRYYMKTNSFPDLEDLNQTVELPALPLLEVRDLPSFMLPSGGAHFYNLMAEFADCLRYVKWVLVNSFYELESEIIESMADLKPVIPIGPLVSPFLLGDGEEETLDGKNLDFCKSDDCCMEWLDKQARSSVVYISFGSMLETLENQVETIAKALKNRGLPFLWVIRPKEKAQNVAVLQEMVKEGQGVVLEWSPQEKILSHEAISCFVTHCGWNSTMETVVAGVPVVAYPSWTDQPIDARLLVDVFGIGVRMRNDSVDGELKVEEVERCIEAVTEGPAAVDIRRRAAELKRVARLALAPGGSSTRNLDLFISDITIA

[3] = target: T3, recombinant GTase A233 (Arabidopsis thaliana, UniProt Q8W491); test: Specific activity of recombinant GTase producing O-glucosides against lignin precursors (HPLC); assay type: biochemical; details: 30° C.; ND = not detected
T3 construct: made in house; host or cells: E. coli

[4] = target: T4, recombinant GTase A43 (Arabidopsis thaliana, UniProt O23402); test: Specific activity of recombinant GTase producing glucose ester against lignin precursors (HPLC); assay type: biochemical; details: 0.5 ml of potential substrates, 5 mM UDPG, 0.2 μg GTase, 200 μl, 20° C., 30 min
T4 construct: made in house; host or cells: E. coli

[5] = target: T5, recombinant GTase A062 (Arabidopsis thaliana, UniProt Q9LR44); test: as above; assay type: biochemical; details: 0.5 ml of potential substrates, 5 mM UDPG, 0.2 μg GTase, 200 μl, 20° C., 30 min
T5 construct: made in house; host or cells: E. coli
T5 sequence (Q9LR44 1-469): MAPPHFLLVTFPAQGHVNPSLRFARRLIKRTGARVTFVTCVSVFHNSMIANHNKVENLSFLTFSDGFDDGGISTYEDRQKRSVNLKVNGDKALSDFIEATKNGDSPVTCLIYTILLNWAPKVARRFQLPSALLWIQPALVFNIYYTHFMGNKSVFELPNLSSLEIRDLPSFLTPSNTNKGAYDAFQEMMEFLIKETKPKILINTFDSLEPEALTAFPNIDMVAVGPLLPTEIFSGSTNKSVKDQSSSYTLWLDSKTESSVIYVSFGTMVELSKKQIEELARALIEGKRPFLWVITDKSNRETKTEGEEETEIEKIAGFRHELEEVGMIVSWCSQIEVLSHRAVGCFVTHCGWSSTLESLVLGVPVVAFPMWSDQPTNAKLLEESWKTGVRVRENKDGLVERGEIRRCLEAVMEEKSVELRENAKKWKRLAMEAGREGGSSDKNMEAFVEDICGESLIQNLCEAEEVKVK

[6] = target: T6, recombinant GTase A961 (Arabidopsis thaliana, UniProt O82381); test: Specific activity of recombinant GTase producing O-glucosides against lignin precursors (HPLC); assay type: biochemical; details: 30° C.; ND = not detected
T6 construct: made in house; host or cells: E. coli
T6 sequence (O82381 1-481): T1 sequence (O82381 1-481)

[7] = target: T7, recombinant GTase A320 (Arabidopsis thaliana, UniProt Q9LVF0); test: Specific activity of recombinant GTase producing glucose ester against lignin precursors (HPLC); assay type: biochemical; details: 5 mM UDPG, 0.2 μg GTase, 200 μl, 20° C., 30 min
T7 construct: made in house; host or cells: E. coli
T7 sequence (Q9LVF0 1-496): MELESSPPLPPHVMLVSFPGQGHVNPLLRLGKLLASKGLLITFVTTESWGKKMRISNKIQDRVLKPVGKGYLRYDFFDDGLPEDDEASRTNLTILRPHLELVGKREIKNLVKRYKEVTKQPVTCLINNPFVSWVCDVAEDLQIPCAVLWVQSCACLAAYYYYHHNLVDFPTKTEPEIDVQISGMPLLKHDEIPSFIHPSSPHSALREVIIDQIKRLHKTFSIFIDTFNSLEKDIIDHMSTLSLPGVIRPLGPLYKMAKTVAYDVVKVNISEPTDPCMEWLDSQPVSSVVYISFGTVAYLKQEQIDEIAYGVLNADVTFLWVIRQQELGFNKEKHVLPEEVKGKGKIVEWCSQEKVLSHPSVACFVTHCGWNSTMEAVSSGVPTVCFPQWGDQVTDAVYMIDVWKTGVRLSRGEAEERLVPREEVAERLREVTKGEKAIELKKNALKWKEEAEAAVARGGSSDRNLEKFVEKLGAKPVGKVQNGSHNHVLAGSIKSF

[8] = target: T8, recombinant GTase A119 (Arabidopsis thaliana, UniProt Q9LVR1); test: Specific activity of recombinant GTase producing O-glucosides against lignin precursors (HPLC); assay type: biochemical; details: 30° C.; ND = not detected
T8 construct: made in house; host or cells: E. coli
T8 sequence (Q9LVR1 1-481): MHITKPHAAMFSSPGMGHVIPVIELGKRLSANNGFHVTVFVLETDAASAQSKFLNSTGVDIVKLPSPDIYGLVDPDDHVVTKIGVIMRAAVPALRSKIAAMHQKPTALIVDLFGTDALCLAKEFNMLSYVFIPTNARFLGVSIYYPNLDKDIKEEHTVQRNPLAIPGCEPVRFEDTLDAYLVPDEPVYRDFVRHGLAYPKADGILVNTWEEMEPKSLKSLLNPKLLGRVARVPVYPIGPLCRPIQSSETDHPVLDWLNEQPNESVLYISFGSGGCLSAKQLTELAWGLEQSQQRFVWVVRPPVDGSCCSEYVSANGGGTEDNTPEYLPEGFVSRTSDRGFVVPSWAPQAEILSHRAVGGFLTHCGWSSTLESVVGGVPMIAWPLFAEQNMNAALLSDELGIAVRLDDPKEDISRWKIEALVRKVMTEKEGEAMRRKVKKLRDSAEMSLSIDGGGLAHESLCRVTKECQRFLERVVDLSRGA

[9] = target: T9, recombinant GTase A407 (Arabidopsis thaliana, UniProt O81498); test: as above; assay type: biochemical; details: 30° C.; ND = not detected
T9 construct: made in house; host or cells: E. coli
T9 sequence (O81498 1-481): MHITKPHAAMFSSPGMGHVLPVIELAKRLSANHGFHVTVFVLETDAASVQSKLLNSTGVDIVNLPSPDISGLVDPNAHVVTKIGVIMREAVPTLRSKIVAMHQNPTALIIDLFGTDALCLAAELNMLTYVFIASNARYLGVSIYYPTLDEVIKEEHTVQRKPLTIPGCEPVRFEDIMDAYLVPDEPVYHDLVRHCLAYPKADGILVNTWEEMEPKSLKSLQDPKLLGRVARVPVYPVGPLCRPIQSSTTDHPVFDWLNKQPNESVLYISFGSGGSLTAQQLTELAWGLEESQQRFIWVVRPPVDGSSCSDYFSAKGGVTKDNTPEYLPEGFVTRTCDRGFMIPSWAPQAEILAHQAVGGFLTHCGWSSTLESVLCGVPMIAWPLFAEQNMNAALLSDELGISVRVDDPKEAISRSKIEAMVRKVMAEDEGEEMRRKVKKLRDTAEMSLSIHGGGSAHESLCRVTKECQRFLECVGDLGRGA

[10] = target: T2, recombinant GTase A911; test: Kinetic studies (Michaelis-Menten) on recombinant GTase producing glucose esters; details: glucose ester formation
[11] = target: T10, recombinant GTase A42 (Arabidopsis thaliana, UniProt O23401); test: Specific activity of recombinant GTase producing glucose ester against lignin precursors (HPLC); assay type: biochemical; details: 0.5 ml of potential substrates, 5 mM UDPG, 0.2 μg GTase, 200 μl, 20° C., 30 min
T10 construct: made in house; host or cells: E. coli
T10 sequence (O23401 1-479): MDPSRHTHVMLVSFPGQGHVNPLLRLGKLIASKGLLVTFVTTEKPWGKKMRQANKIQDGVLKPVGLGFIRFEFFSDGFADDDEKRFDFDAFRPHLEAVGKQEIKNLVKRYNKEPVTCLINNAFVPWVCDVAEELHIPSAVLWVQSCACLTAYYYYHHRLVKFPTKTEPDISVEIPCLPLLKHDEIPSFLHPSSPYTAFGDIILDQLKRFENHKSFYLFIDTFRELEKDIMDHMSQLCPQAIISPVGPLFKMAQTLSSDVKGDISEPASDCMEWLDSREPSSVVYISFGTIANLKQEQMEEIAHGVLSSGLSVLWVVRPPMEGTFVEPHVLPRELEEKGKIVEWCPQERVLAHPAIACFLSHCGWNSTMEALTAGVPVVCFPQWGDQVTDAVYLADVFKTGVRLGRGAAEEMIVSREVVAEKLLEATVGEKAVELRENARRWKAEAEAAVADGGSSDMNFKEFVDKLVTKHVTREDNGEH

[12] = target: T10, recombinant GTase A42; test: Kinetic studies (Michaelis-Menten) on recombinant GTase producing glucose esters; assay type: biochemical; details: glucose ester formation
[13] = target: T11, recombinant GTase A41 (Arabidopsis thaliana, UniProt Q5XF20); test: Specific activity of recombinant GTase producing glucose ester against lignin precursors (HPLC); assay type: biochemical; details: 5 mM UDPG, 0.2 μg GTase, 200 μl, 20° C., 30 min
T11 construct: made in house; host or cells: E. coli
T11 sequence (Q5XF20 7-490): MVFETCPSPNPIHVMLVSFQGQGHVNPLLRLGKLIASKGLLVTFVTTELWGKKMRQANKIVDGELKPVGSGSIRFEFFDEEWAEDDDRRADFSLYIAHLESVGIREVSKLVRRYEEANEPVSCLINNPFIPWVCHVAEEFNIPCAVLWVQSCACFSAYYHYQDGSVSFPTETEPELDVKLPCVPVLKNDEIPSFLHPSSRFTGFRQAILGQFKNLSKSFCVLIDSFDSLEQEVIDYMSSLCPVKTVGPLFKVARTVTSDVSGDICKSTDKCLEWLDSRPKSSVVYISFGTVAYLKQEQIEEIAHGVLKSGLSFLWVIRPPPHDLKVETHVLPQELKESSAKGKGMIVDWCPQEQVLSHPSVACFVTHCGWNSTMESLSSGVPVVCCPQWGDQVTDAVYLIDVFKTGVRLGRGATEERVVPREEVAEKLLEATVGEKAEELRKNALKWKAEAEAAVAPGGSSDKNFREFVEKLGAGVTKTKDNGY

[14] = substrate: O=C(O)/C=C/c1ccc(O)cc1; test: Kinetic studies (Michaelis-Menten) on recombinant GTase producing glucose esters; assay type: biochemical, Arabidopsis thaliana; details: other: glucose ester formation; pH 7.0; 30.0 °C
[15] = substrate: O=C(O)C=Cc1ccccc1; test: as above; assay type: biochemical, Arabidopsis thaliana; details: other: glucose ester formation; pH 7.0; 30.0 °C

O=C(O)C=Cc1ccc(O)c(O)c1 [Caffeic acid, 3,4-dihydroxycinnamic acid]
Specific activity (UGT71C1) [1]: 2.9 ± 0.8 nkat/mg
Specific activity of A911 (substrate converted to glucose ester) [2]: 0.77 nkat/mg
Specific activity of A233 (substrate converted to 4-O-glucoside) [3]: 0.48 nkat/mg
Specific activity of A43 (substrate converted to glucose ester) [4]: 0.01 nkat/mg
Specific activity of A062 (substrate converted to glucose ester) [5]: 0.26 nkat/mg
Specific activity of A961 (substrate converted to 4-O-glucoside) [6]: 0.07 nkat/mg
Specific activity of A320 (substrate converted to glucose ester) [7]: 0.05 nkat/mg
Specific activity of A119 (substrate converted to 4-O-glucoside) [8]: 0.13 nkat/mg
Specific activity of A407 (substrate converted to 4-O-glucoside) [9]: 0.07 nkat/mg

O=C(O)C=Cc1ccccc1 [Cinnamic acid, cinnamic acid]
Specific activity of A911 (substrate converted to glucose ester) [2]: 8.77 nkat/mg
Vmax (A911) [10]: 9.06 nkat/mg
Specific activity of A43 (substrate converted to glucose ester) [4]: 0.02 nkat/mg
Specific activity of A062 (substrate converted to glucose ester) [5]: 1.62 nkat/mg
Specific activity of A42 (substrate converted to glucose ester) [11]: 14.21 nkat/mg
Specific activity of A320 (substrate converted to glucose ester) [7]: 0.06 nkat/mg
Vmax (A42) [12]: 19.42 nkat/mg
Specific activity of A41 (substrate converted to glucose ester) [13]: 0.30 nkat/mg

B1: recombinant GTase A062 (Arabidopsis thaliana) (protein)
chain: T5 sequence (Q9LR44 1-469)
notes: made in house; host or cells: E. coli
Km [14]: 5.05 mM
Vmax [14]: 4.91 nkat/mg
Km [15]: 4.33 mM
Vmax [15]: 2.87 nkat/mg
